We go through 7 molecules from US7943606B2, “Compositions and methods to control abnormal cell growth” (CanCure Laboratories, LLC, priority 2005, dated 2011).

Where two headings read alike, the source gives them in different places.

Data set [1] in a line: Viability of MRC-5 normal lung fibroblasts (MTT assay). It is filed as cell-based. As to conditions: human. The procedure:
(§1) To quantify cell death, around the time when significant and characteristic morphological changes took place, cells were pulse-labeled for 10 minutes with [^3H]thymidine to measure DNA activity as described elsewhere [Tomono, M. and Kiss, Z. (1995), “Ethanol enhances the stimulatory effects of insulin and insulin-like growth factor-I on DNA synthesis in NIH 3T3 fibroblasts,” Biochem. Biophys. Res. Commun. 208, 63-67]. Also, cells were collected as suspensions using trypsin, an established method in cell biology, followed by re-plating of cells in fresh tissue culture medium. If no viable cells were obtained after one week in culture, it meant that the cells at the time of re-plating were dead. Survival values obtained with untreated cells were considered 100%. For the determination of relative number of viable cells after treatments, in most cases the MTT assay was used. This calorimetric assay is based on the ability of living cells, but not dead cells, to reduce 3-(4,5-dimethyl thiazol-2-yl)-2,5-diphenyltetrazolium bromide [Carmichael, J, De Graff, W. G., Gazdar, A. F., Minna, J. D. and Mitchell, J. B. (1987), “Evaluation of tetrazolium-based semi-automated calorimetric assay: Assessment of chemosensitivity testing,” Cancer Res. 47, 936-942]. For this assay, cells were plated in 96-well plates, and the MTT assay was performed both in untreated and treated cell cultures. The MTT assay also was performed at the start of treatments to allow assessment of proliferation rates in the control and treated cell cultures.
(§2) The MRC-5 cell line is derived from normal lung tissue of a […] fetus. MRC-5 cells were maintained and treated in Eagles Medium with Hanks' BSS containing 10% fetal bovine serum. The T47D cells were maintained and treated in RPMI 1640 medium supplemented with 0.2 IU bovine insulin and 10% fetal bovine serum. The CaOV-3 human ovarian cancer cells were cultured in Dulbecco's modified Eagle's medium containing 10% fetal bovine serum. The cells were seeded in 96-well plates either at 10,000 cells per well or 30,000 cells per well to examine the antiproliferative and cytotoxic effects of various CC compounds, respectively. The cells were incubated for 24 hours, then the medium was changed followed by the treatments of cultures 2 hours after the medium change. At this point, cell cultures seeded at 10,000 cells per well and 30,000 cells per well were 25-35% and 80-90% confluent, respectively. Incubations were continued for 72 hours followed by the MTT assay. The data, shown in TABLE 2, indicate the inhibitory concentrations of CC compounds (IC50) required for 50% decrease in the number of viable cells. These numbers are calculated from the mean of 4 incubations in one experiment (the experiment was repeated once with similar results).

The subject of the next data set is MRC-5 cells. The data set is described as above. It is filed as cell-based. The conditions noted are these: Homo sapiens, MRC5; 10,000 cells per well (25-35% confluent), 72 hours, MTT; read-out: IC50 values, Antiproliferative, MRC-5. As to the method: as §1, §2
A further data set has as its system CaOV-3 cells. Put plainly: Viability of CaOV-3 ovarian cancer cells (MTT assay). It is filed as cell-based, human. The conditions noted are these: Homo sapiens, Caov-3, 72 hours, MTT. The procedure: as §1
(§3) NIH3T3, T47D, A-431, HT-29, and MEL-28 cells were cultured as indicated earlier. CaOV-3 human ovarian cancer cells were cultured in DMEM containing 10% FBS. ZR-75-1 human estrogen receptor-positive breast cancer cells were maintained in RPMI 1640 medium supplemented with 10% FBS. HTB-157 human fetal fibroblasts, MEL-24 human malignant melanoma cells, Hep G2 human hepatoblastoma cells, and CaCO-2 human colon adenocarcinoma cells were maintained in Eagles's MEM containing 10% FBS. MB-231 human estrogen receptor-negative breast cancer cells were maintained in Leibovitz's L-15 medium supplemented with 10% FBS. Cells were seeded into 96-well plates and treated at ˜70-90% confluency. Two hours prior to treatments the medium was changed for fresh 10% serum medium, and then the cells were incubated for 10 days in the absence (□) or presence of 50 μM CCDTHT ? or 100 μM CCDTHT (▪). The medium was changed and the cells were re-treated on days 3 and 6. The MTT assay was used to determine cell viability on day 10. The data, shown in FIG. 6, are the mean±std. dev. of 8 incubations in one experiment. (The experiment was repeated twice with similar results).
as §2, with “results). […]” for “results).”

In a further data set the test system is T47D cells. Put plainly: Viability of T47D breast cancer cells. It is filed as cell-based, human. The conditions noted are these: Homo sapiens, T47D, 72 hours, MTT. The procedure:
as §1
About 40% confluent cultures of T47D cells, cultured in 12-well plates in RPMI 1640 medium supplemented with 0.2 IU bovine insulin and 10% FBS, were either untreated (FIG. 4A), or were treated with 100 μM CCDTHT (CCompound3) for 72 hours (FIG. 4B).
as §3, with “experiment.” for “experiment. (The experiment was repeated twice with similar results).”
as §2, with “respectively.” for “respectively. Incubations were continued for 72 hours followed by the MTT assay. The data, shown in TABLE 2, indicate the inhibitory concentrations of CC compounds (IC50) required for 50% decrease in the number of viable cells. These numbers are calculated from the mean of 4 incubations in one experiment (the experiment was repeated once with similar results).”

In a further data set the test system is MCF-7 cells. The data set is described as follows: Viability of MCF-7 breast cancer cells. It is filed as cell-based, human. As to conditions: 2 mM Etn + 100 μM CCDTHT, 72 hours, MTT. As to the method: as §1
About 50% confluent cultures of MCF-7 cells, cultured in 12-well plates in Dulbecco's modified Eagle's medium (DMEM) supplemented with 10% FBS, were either untreated (FIG. 3A), or were treated with 100 μM CCDTHT (CCompound3) for 72 hours (FIG. 3B). […] This experiment was repeated three times with similar results. In some experiments, cells from the CCDTHT-treated cultures were seeded into 96-well plates, and the MTT assay was performed 96 hours later to test for viable cells.
The NIH 3T3 (normal) mouse fibroblast, A431 human epidermoid adenocarcinoma, and MCF-7 human breast cancer cells were cultured in DMEM medium containing 10% FBS. The MEL-28 human melanoma cells were cultured in MEM medium containing 10% FBS. The HT-29 human colon adenocarcinoma cells were cultured in McCoy's 5a medium containing 10% FBS. The A549 human lung carcinoma cells were maintained in Ham's F12K medium containing 10% FBS. Cells were seeded into 96-well plates and treated at ˜70-90% confluency. Two hours before treatments the medium was changed for fresh 10% serum medium, and then the cells were incubated for 72 hours in the presence of 0-200 μM of CCompound1 (●) or CCompound3 (CCDTHT) (▴), as indicated. The MTT assay was used to determine cell viability after treatments. The values, shown in FIGS. 5A-5F and expressed as percent decrease in viability compared to the untreated control cells, are the mean±std. dev. of 8 incubations in one experiment. Similar results were obtained in another experiment.
NIH 3T3, AN3CA, HT-29, MEL-28, and MCF-7 cells were cultured as described earlier. Cells were seeded into 96-well plates; when cells were ˜80-90% confluent, the medium was changed for fresh 10% serum-containing medium, followed by incubations for 72 hours in the absence (□) or presence of 100 μM CCDTHT ? , 2 mM ethanolamine (Etn) ? , or 100 μM CCDTHT+2 mM Etn (▪). The MTT assay was used to determine cell viability. […]

Where [2] appears, read: MRC-5 normal lung fibroblasts, 30,000 cells per well (80-90% confluent), 72 hours, MTT, read-out: IC50 values, Cytotoxic, MRC-5.
Setting [3] is: 10,000 cells per well (25-35% confluent), read-out: IC50 values, Antiproliferative, CaOV-3.
Where [4] appears, read: 30,000 cells per well (80-90% confluent), read-out: IC50 values, Cytotoxic, CaOV-3.
[5] abbreviates: 10,000 cells per well (25-35% confluent), read-out: IC50 values, Antiproliferative, T47D.
The mark [6] stands for this setting: 30,000 cells per well (80-90% confluent), read-out: IC50 values, Cytotoxic, T47D.

On to `CC[N+](C)(C)CC/C=C1/c2ccccc2Sc2ccc(C)cc21` [CCcompound22, N,N-Dimethyl-N-ethyl-3-(2-methyl-9H-thioxanthen-9-ylidene)-propane-1-aminium iodide], for which the IC50 at 72 h in data set [1] (setting [2]) amounted to 215 µM. Also, the IC50 in the data set on MRC-5 cells amounted to 140 µM; in the data set on CaOV-3 cells (setting [3]), 61 µM; in the data set on CaOV-3 cells (setting [4]), 36 µM; in the data set on T47D cells (setting [5]), 65 µM; in the data set on T47D cells (setting [6]) it was 65 µM.

Molecule `C=CC[N+](CC)(CC)CC/C=C1/c2ccccc2Sc2ccc(C)cc21.[Br-]` [CCcompound26, N,N-diethyl-N-allyl-3-(2-methyl-9H-thioxanthen-9-ylidene)-propane-1-aminium-bromide] yielded an IC50 at 72 h in data set [1] of 98 µM. In addition, the IC50 in the data set on MRC-5 cells came to 86 µM; with CaOV-3 cells (setting [3]) it was 57 µM; in the data set with CaOV-3 cells (setting [4]) it was 59 µM; with T47D cells (setting [5]), 11 µM; in the data set with T47D cells (setting [6]), 8 µM.

For `NCCO` [Etn, ethanolamine, reference compound], in the data set on MCF-7 cells, the “effect of Etn on CCDTHT-induced reduction in cell viability, MCF-7” value is on record as “clearly prevented”.

As to `Cc1ccc2c(c1)/C(=C\CC[N+](C)(C)C)c1ccccc1S2` [CCcompound21, N,N,N-trimethyl-3-(2-methyl-9H-thioxanthen-9-ylidene)-propane-1-aminium iodide], the IC50 at 72 h in data set [1] (setting [2]) is 164 µM. In addition, the IC50 with MRC-5 cells came to 113 µM; with CaOV-3 cells (setting [3]), 32 µM; in the data set with CaOV-3 cells (setting [4]), 29 µM; with T47D cells (setting [5]), 76 µM; with T47D cells (setting [6]), 59 µM.

`CC[N+](C)(CC)CC/C=C1/c2ccccc2Sc2ccc(C)cc21` [CCcompound23, N,N-Diethyl-N-methyl-3-(2-methyl-9H-thioxanthen-9-ylidene)-propane-1-aminium iodide]: in data set [1] (setting [2]), the IC50 at 72 h worked out at 163 µM. Besides, the IC50 in the data set on MRC-5 cells worked out at 139 µM; with CaOV-3 cells (setting [3]), 14 µM; in the data set with CaOV-3 cells (setting [4]) it was 32 µM; in the data set on T47D cells (setting [5]), 48 µM; in the data set on T47D cells (setting [6]), 38 µM.

On to `C=CC[N+](C)(C)CC/C=C1/c2ccccc2Sc2ccc(C)cc21` [CCcompound24, N,N-Dimethyl-N-allyl-3-(2-methyl-9H-thioxanthen-9-ylidene)-propane-1-aminium bromide], for which, in data set [1], the IC50 at 72 h stood at 207 µM. Moreover, the IC50 amounted to 113 µM in the data set with MRC-5 cells; 69 µM in the data set with CaOV-3 cells (setting [3]); 29 µM with CaOV-3 cells (setting [4]); 56 µM in the data set on T47D cells (setting [5]); 59 µM in the data set on T47D cells (setting [6]).

In the case of `CC[N+](CC)(CC)CC/C=C1/c2ccccc2Sc2ccc(C)cc21` [CCcompound25, N,N,N-triethyl-3-(2-methyl-9H-thioxanthen-9-ylidene)-propane-1-aminium-iodide], the IC50 at 72 h in data set [1] (setting [2]) turned out to be 123 µM. Further, the IC50 is 118 µM with MRC-5 cells; 47 µM with CaOV-3 cells (setting [3]); 66 µM with CaOV-3 cells (setting [4]); 18 µM with T47D cells (setting [5]); 39 µM with T47D cells (setting [6]).
